Columns and labels:
[1] = test system: surinam grass; test: Test B pre/postemergence surinam grass; format: in vivo, Brachiaria decumbens
In short: (§1)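 Herbicidal effect was estimated by eye on a ten-point control scale after plants spent twelve to sixteen days in a greenhouse following soil or foliar treatment. Foliar sprays targeted plants at one to four leaves; all doses were formulated in a non-phytotoxic solvent with surfactant.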

[2] = test system: soybean; test: Test B pre/postemergence soybean; format: in vivo, Glycine max
In short: as §1

[3] = test system: giant foxtail; test: Test B pre/postemergence giant foxtail; format: in vivo, Setaria faberii
In short: as §1

[4] = test system: wheat; test: Test B pre/postemergence wheat; format: in vivo, Triticum aestivum
In short: as §1

[5] = test system: crabgrass; test: Test B pre/postemergence crabgrass; format: in vivo, Digitaria sanguinalis
In short: as §1

[6] = test system: pigweed; test: Test B pre/postemergence pigweed; format: in vivo, Amaranthus retroflexus
In short: as §1

[7] = test system: bamyardgrass; test: Test B flood test barnyardgrass; format: in vivo, Echinochloa crus-galli
In short: (§2)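 Each value is a visual injury score relative to controls, with 10 meaning complete control and 0 no effect. Evaluation took place twelve to sixteen days after the 2-leaf-stage plants were treated and kept in the greenhouse.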

[8] = test system: purple nutsedge; test: Test B pre/postemergence purple nutsedge; format: in vivo, Cyperus rotundus
In short: as §1

[9] = test system: cocklebur; test: Test B pre/postemergence cocklebur; format: in vivo, Xanthium strumarium
In short: as §1

[10] = test system: corn; test: Test B pre/postemergence corn; format: in vivo, Zea mays
In short: as §1

[11] = test system: velvetleaf; test: Test B pre/postemergence velvetleaf; format: in vivo, Abutilon theophrasti
In short: as §1

[12] = test system: morningglory; test: Test B pre/postemergence morningglory; format: in vivo, Ipomoea hederacea
In short: as §1

[13] = test system: bedstraw; test: Test B pre/postemergence bedstraw; format: in vivo, Galium aparine
In short: as §1

[14] = test system: wild oat; test: Test B pre/postemergence wild oat; format: in vivo, Avena fatua
In short: as §1

[15] = test system: sugar beet; test: Test B pre/postemergence sugar beet; format: in vivo, Beta vulgaris
In short: as §1

[16] = test system: smallflower flatsedge; test: Test B flood test smallflower flatsedge; format: in vivo, Cyperus difformis
In short: as §2

[17] = test system: rice; test: Test B flood test rice; format: in vivo, Oryza sativa
In short: as §2

[18] = test system: duck salad; test: Test B flood test duck salad; format: in vivo, Heteranthera limosa
In short: as §2

[19] = test system: blackgrass; test: Test B pre/postemergence blackgrass; format: in vivo, Alopecurus myosuroides
In short: as §1

[20] = test system: rape; test: Test B pre/postemergence rape; format: in vivo, Brassica napus
In short: as §1

[21] = Preemergence, Rate 62 g/ha, scale of 0 to 10 where 0 is no effect and 10 is complete control
[22] = Preemergence, Rate 250 g/ha, scale of 0 to 10 where 0 is no effect and 10 is complete control
[23] = Preemergence, Rate 500 g/ha, scale of 0 to 10 where 0 is no effect and 10 is complete control
[24] = Rate 62 g/ha, Postemergence, scale of 0 to 10 where 0 is no effect and 10 is complete control
[25] = Rate 125 g/ha, Preemergence, scale of 0 to 10 where 0 is no effect and 10 is complete control
[26] = Rate 500 g/ha, Postemergence, scale 0 to 10, 0 no effect, 10 complete control
[27] = Rate 62 g/ha, headed Pre-emergence (flood test species), scale 0 to 10 (0 no effect, 10 complete control)
[28] = Rate 125 g/ha, Pre-emergence, flood test species, scale 0 to 10 where 0 is no effect and 10 is complete control
[29] = Rate 250 g/ha, Pre-emergence, flood-test species, scale 0 to 10, 0 is no effect, 10 is complete control
[30] = Rate 500 g/ha, Pre-emergence, flood test species, scale 0 to 10 (0 no effect, 10 complete control)
[31] = Rate 125 g/ha, Postemergence, scale 0 to 10

SMILES: C=CCn1c(=O)on(C(=O)N(c2ccc(F)cc2)C2CCCCCC2)c1=O [Compound 249]
- B. signalgrass plant response rating [1, 21]: 0
- B. signalgrass plant response rating [1, 22]: 0
- Plant response rating, B. signalgrass [1, 23]: 0
- B. signalgrass plant response rating [1, 24]: 0
- B. signalgrass plant response rating ([1]; Rate 125 g/ha, Postemergence, scale 0 (no effect) to 10 (complete control)): 0
- B. signalgrass plant response rating [1, 25]: 0
- Plant response rating (0 to 10; 0 is no effect, 10 is complete control), B. signalgrass ([1]; Rate 250 g/ha, Postemergence): 0
- B. signalgrass plant response rating [1, 26]: 0
- Soybean plant response rating [2, 21]: 0
- Soybean plant response rating [2, 22]: 0
- Plant response rating, Soybean [2, 23]: 0
- Soybean plant response rating [2, 25]: 0
- Soybean plant response rating [2, 26]: 4
- Giant foxtail plant response rating [3, 21]: 0
- Giant foxtail plant response rating [3, 22]: 3
- Plant response rating, Giant foxtail [3, 23]: 5
- Giant foxtail plant response rating [3, 25]: 0
- Plant response rating (0 to 10; 0 is no effect, 10 is complete control), Giant foxtail ([3]; Rate 250 g/ha, Postemergence): 0
- Giant foxtail plant response rating [3, 26]: 0
- Wheat plant response rating [4, 21]: 0
- Wheat plant response rating [4, 22]: 0
- Plant response rating, Wheat [4, 23]: 0
- Wheat plant response rating [4, 25]: 0
- Wheat plant response rating [4, 26]: 0
- Crabgrass plant response rating [5, 21]: 0
- Crabgrass plant response rating [5, 22]: 0
- Plant response rating, Crabgrass [5, 23]: 2
- Crabgrass plant response rating [5, 25]: 0
- Plant response rating (0 to 10; 0 is no effect, 10 is complete control), Crabgrass ([5]; Rate 250 g/ha, Postemergence): 0
- Crabgrass plant response rating [5, 26]: 0
- Redroot pigweed plant response rating [6, 21]: 0
- Redroot pigweed plant response rating [6, 22]: 0
- Plant response rating, Redroot pigweed [6, 23]: 0
- Redroot pigweed plant response rating [6, 25]: 0
- Plant response rating (0 to 10; 0 is no effect, 10 is complete control), Redroot pigweed ([6]; Rate 250 g/ha, Postemergence): 0
- Redroot pigweed plant response rating [6, 26]: 3
- Barnyardgrass plant response rating [7, 27]: 0
- Barnyardgrass plant response rating [7, 28]: 0
- Barnyardgrass plant response rating [7, 29]: 0
- Barnyardgrass plant response rating [7, 30]: 0
- Nutsedge plant response rating [8, 21]: 0
- Nutsedge plant response rating [8, 22]: 0
- Plant response rating, Nutsedge [8, 23]: 0
- Nutsedge plant response rating [8, 25]: 0
- Plant response rating (0 to 10; 0 is no effect, 10 is complete control), Nutsedge ([8]; Rate 250 g/ha, Postemergence): 0
- Nutsedge plant response rating [8, 26]: 0
- Cocklebur plant response rating [9, 21]: 0
- Cocklebur plant response rating [9, 22]: 0
- Plant response rating, Cocklebur [9, 23]: 0
- Cocklebur plant response rating [9, 24]: 0
- Cocklebur plant response rating [9, 31]: 0
- Cocklebur plant response rating [9, 25]: 0
- Plant response rating (0 to 10; 0 is no effect, 10 is complete control), Cocklebur ([9]; Rate 250 g/ha, Postemergence): 0
- Cocklebur plant response rating [9, 26]: 0
- Corn plant response rating [10, 21]: 0
- Corn plant response rating [10, 22]: 0
- Plant response rating, Corn [10, 23]: 0
- Corn plant response rating [10, 24]: 0
- Corn plant response rating [10, 31]: 0
- Corn plant response rating [10, 25]: 0
- Plant response rating (0 to 10; 0 is no effect, 10 is complete control), Corn ([10]; Rate 250 g/ha, Postemergence): 0
- Corn plant response rating [10, 26]: 0
- Velvetleaf plant response rating [11, 21]: 0
- Velvetleaf plant response rating [11, 22]: 0
- Plant response rating, Velvetleaf [11, 23]: 0
- Velvetleaf plant response rating [11, 25]: 0
- Velvetleaf plant response rating [11, 26]: 0
- Morningglory plant response rating [12, 21]: 0
- Morningglory plant response rating [12, 22]: 0
- Plant response rating, Morningglory [12, 23]: 0
- Morningglory plant response rating [12, 25]: 0
- Plant response rating (0 to 10; 0 is no effect, 10 is complete control), Morningglory ([12]; Rate 250 g/ha, Postemergence): 0
- Morningglory plant response rating [12, 26]: 3
- Bedstraw plant response rating [13, 21]: 0
- Bedstraw plant response rating [13, 22]: 0
- Plant response rating, Bedstraw [13, 23]: 0
- Bedstraw plant response rating [13, 24]: 0
- Bedstraw plant response rating [13, 31]: 0
- Plant response rating (0 to 10; 0 is no effect, 10 is complete control), Bedstraw ([13]; Rate 250 g/ha, Postemergence): 0
- Bedstraw plant response rating [13, 26]: 0
- Wild oats plant response rating [14, 21]: 0
- Wild oats plant response rating [14, 22]: 0
- Plant response rating, Wild oats [14, 23]: 0
- Wild oats plant response rating [14, 25]: 0
- Wild oats plant response rating [14, 26]: 0
- Sugarbeets plant response rating [15, 21]: 0
- Sugarbeets plant response rating [15, 22]: 0
- Plant response rating, Sugarbeets [15, 23]: 0
- Sugarbeets plant response rating [15, 25]: 0
- Sugarbeets plant response rating [15, 26]: 2
- S. Flatsedge plant response rating [16, 27]: 0
- S. Flatsedge plant response rating [16, 28]: 0
- S. Flatsedge plant response rating [16, 29]: 0
- S. Flatsedge plant response rating [16, 30]: 0
- Rice plant response rating [17, 27]: 0
- Rice plant response rating [17, 28]: 0
- Rice plant response rating [17, 29]: 0
- Rice plant response rating [17, 30]: 0
- Ducksalad plant response rating [18, 27]: 0
- Ducksalad plant response rating [18, 28]: 0
- Ducksalad plant response rating [18, 29]: 0
- Ducksalad plant response rating [18, 30]: 0
- Blackgrass plant response rating [19, 21]: 0
- Blackgrass plant response rating [19, 22]: 0
- Plant response rating, Blackgrass [19, 23]: 0
- Blackgrass plant response rating [19, 24]: 0
- Blackgrass plant response rating [19, 31]: 0
- Blackgrass plant response rating [19, 25]: 0
- Plant response rating (0 to 10; 0 is no effect, 10 is complete control), Blackgrass ([19]; Rate 250 g/ha, Postemergence): 0
- Blackgrass plant response rating [19, 26]: 0
- Rape plant response rating [20, 21]: 0
- Rape plant response rating [20, 22]: 0
- Plant response rating, Rape [20, 23]: 0
- Rape plant response rating [20, 25]: 0
- Plant response rating (0 to 10; 0 is no effect, 10 is complete control), Rape ([20]; Rate 250 g/ha, Postemergence): 0
- Rape plant response rating [20, 26]: 0

— patent US6737383B1, “Herbicidal oxadiazolidines” (priority 1999, dated 2004)
